Experimental data reported in the supplement of paper PMC10307832.

compound: c1ccc2c(CCNc3ccc(Nc4ccncc4)cc3)c[nH]c2c1 [Serdemetan] + NC(=O)Nc1cc(-c2cccc(F)c2)sc1C(=O)N[C@H]1CCCNC1 [AZD7762] (partner 0.2 µM); assay: relative viability (nuclei count vs DMSO), 5 days (fraction); higher = more cells survive; settings: first compound 0.04 µM
Outline: (§1)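 Nuclei were stained with Hoechst during a one-step fixation (final 0.05% Triton X-100, 1% formaldehyde, 1 ug/ml Hoechst) carried out 5 days after dosing, then counted on 4× images. The cells, lung cancer lines in 1536-well plates, had been dosed by pin tool the day after seeding with one drug alone or a fixed anchor-drug dose plus five library-drug doses (not always all listed) in √10 steps. Relative viability is the nuclei count in treated wells divided by that in vehicle wells, and each value is the median of duplicate plates.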

| Cell Line | relative viability |
| --- | --- |
| NCI-H1915 | 0.685 |
| HCC-827 | 0.218 |
| LXF-289 | 1.07 |
| NCI-H23 | 0.274 |
| NCI-H647 | 0.556 |
| NCI-H1651 | 0.375 |
| EPLC-272H | 0.245 |
| NCI-H1792 | 0.674 |
| NCI-H1355 | 0.631 |
| NCI-H3122 | 1 |
| NCI-H1437 | 1.13 |
| NCI-H1755 | 0.461 |
| HCC-15 | 0.952 |
| NCI-H1793 | 0.367 |
| PC-14 | 0.327 |
| EKVX | 0.808 |
| LC-2-ad | 0.806 |
| NCI-H1944 | 0.43 |
| NCI-H1975 | 0.635 |
| RERF-LC-KJ | 1.03 |
| ABC-1 | 0.971 |
| NCI-H358 | 0.525 |
| NCI-H650 | 0.854 |
| PC-3 [JPC-3] | 0.823 |

same assay, conditions: first compound 0.1265 µM

| Cell Line | relative viability |
| --- | --- |
| NCI-H1915 | 0.656 |
| HCC-827 | 0.157 |
| LXF-289 | 1.11 |
| NCI-H23 | 0.235 |
| NCI-H647 | 0.382 |
| NCI-H1651 | 0.286 |
| EPLC-272H | 0.217 |
| NCI-H1792 | 0.59 |
| NCI-H1355 | 0.512 |
| NCI-H3122 | 0.975 |
| NCI-H1437 | 1.12 |
| NCI-H1755 | 0.45 |
| HCC-15 | 1.49 |
| NCI-H1793 | 0.313 |
| PC-14 | 0.357 |
| EKVX | 0.746 |
| LC-2-ad | 0.836 |
| NCI-H1944 | 0.647 |
| NCI-H1975 | 0.769 |
| RERF-LC-KJ | 0.547 |
| ABC-1 | 0.67 |
| NCI-H358 | 0.5 |
| NCI-H650 | 0.977 |
| PC-3 [JPC-3] | 0.759 |

same assay, conditions: first compound 0.4 µM

| Cell Line | relative viability |
| --- | --- |
| NCI-H1915 | 0.763 |
| LXF-289 | 1.07 |
| NCI-H23 | 0.261 |
| NCI-H647 | 0.396 |
| NCI-H1651 | 0.363 |
| EPLC-272H | 0.221 |
| NCI-H1792 | 0.63 |
| NCI-H1355 | 0.623 |
| NCI-H3122 | 1.03 |
| NCI-H1437 | 1.1 |
| NCI-H1755 | 0.492 |
| HCC-15 | 1.23 |
| NCI-H1793 | 0.335 |
| PC-14 | 0.204 |
| LC-2-ad | 0.791 |
| NCI-H1944 | 0.626 |
| NCI-H1975 | 0.717 |
| RERF-LC-KJ | 0.806 |
| ABC-1 | 0.722 |
| NCI-H358 | 0.455 |
| NCI-H650 | 1.2 |
| PC-3 [JPC-3] | 0.802 |

same assay, conditions: first compound 1.265 µM

| Cell Line | relative viability |
| --- | --- |
| NCI-H1915 | 0.536 |
| HCC-827 | 0.18 |
| LXF-289 | 0.982 |
| NCI-H647 | 0.41 |
| NCI-H1651 | 0.248 |
| EPLC-272H | 0.221 |
| NCI-H1792 | 0.326 |
| NCI-H1355 | 0.469 |
| NCI-H3122 | 0.929 |
| NCI-H1437 | 0.979 |
| NCI-H1755 | 0.288 |
| HCC-15 | 0.72 |
| NCI-H1793 | 0.181 |
| PC-14 | 0.304 |
| LC-2-ad | 0.737 |
| NCI-H1944 | 0.291 |
| NCI-H1975 | 0.769 |
| RERF-LC-KJ | 0.897 |
| NCI-H358 | 0.335 |
| NCI-H650 | 1.02 |
| PC-3 [JPC-3] | 0.591 |

same assay, conditions: first compound 4 µM

| Cell Line | relative viability |
| --- | --- |
| NCI-H1915 | 0.503 |
| HCC-827 | 0.17 |
| LXF-289 | 0.846 |
| NCI-H23 | 0.208 |
| NCI-H647 | 0.285 |
| NCI-H1651 | 0.213 |
| EPLC-272H | 0.215 |
| NCI-H1792 | 0.324 |
| NCI-H1355 | 0.484 |
| NCI-H3122 | 0.71 |
| NCI-H1437 | 0.876 |
| NCI-H1755 | 0.389 |
| HCC-15 | 1.07 |
| NCI-H1793 | 0.192 |
| PC-14 | 0.161 |
| EKVX | 0.649 |
| LC-2-ad | 0.709 |
| NCI-H1944 | 0.281 |
| NCI-H1975 | 0.72 |
| RERF-LC-KJ | 0.94 |
| ABC-1 | 0.866 |
| NCI-H358 | 0.381 |
| NCI-H650 | 0.933 |
| PC-3 [JPC-3] | 0.71 |

compound: c1ccc2c(CCNc3ccc(Nc4ccncc4)cc3)c[nH]c2c1 [Serdemetan] + CS(=O)(=O)N1CCN(Cc2cc3nc(-c4cccc5[nH]ncc45)nc(N4CCOCC4)c3s2)CC1 [Pictilisib] (partner 1 µM); assay: as above; settings: first compound 0.04 µM
Outline: as §1

| Cell Line | relative viability |
| --- | --- |
| NCI-H1915 | 0.966 |
| HCC-827 | 0.921 |
| LXF-289 | 0.792 |
| NCI-H23 | 0.536 |
| NCI-H647 | 0.359 |
| NCI-H1651 | 0.434 |
| EPLC-272H | 0.365 |
| NCI-H1792 | 0.278 |
| NCI-H1355 | 0.456 |
| NCI-H3122 | 0.627 |
| NCI-H1437 | 0.469 |
| NCI-H1755 | 0.428 |
| HCC-15 | 0.753 |
| NCI-H1793 | 0.302 |
| PC-14 | 0.626 |
| EKVX | 0.532 |
| LC-2-ad | 0.42 |
| NCI-H1944 | 0.354 |
| NCI-H1975 | 0.302 |
| RERF-LC-KJ | 0.433 |
| ABC-1 | 0.674 |
| NCI-H358 | 0.364 |
| NCI-H650 | 0.743 |
| PC-3 [JPC-3] | 0.748 |

same assay, conditions: first compound 0.1265 µM

| Cell Line | relative viability |
| --- | --- |
| NCI-H1915 | 1.01 |
| HCC-827 | 0.712 |
| LXF-289 | 0.783 |
| NCI-H23 | 0.571 |
| NCI-H647 | 0.313 |
| NCI-H1651 | 0.496 |
| EPLC-272H | 0.348 |
| NCI-H1792 | 0.274 |
| NCI-H1355 | 0.491 |
| NCI-H3122 | 0.669 |
| NCI-H1437 | 0.409 |
| NCI-H1755 | 0.458 |
| HCC-15 | 0.821 |
| NCI-H1793 | 0.415 |
| PC-14 | 0.631 |
| EKVX | 0.414 |
| LC-2-ad | 0.445 |
| NCI-H1944 | 0.383 |
| NCI-H1975 | 0.355 |
| RERF-LC-KJ | 0.561 |
| ABC-1 | 0.673 |
| NCI-H358 | 0.368 |
| NCI-H650 | 0.778 |
| PC-3 [JPC-3] | 0.693 |

same assay, conditions: first compound 0.4 µM

| Cell Line | relative viability |
| --- | --- |
| NCI-H1915 | 0.921 |
| LXF-289 | 0.662 |
| NCI-H23 | 0.459 |
| NCI-H647 | 0.499 |
| NCI-H1651 | 0.433 |
| EPLC-272H | 0.293 |
| NCI-H1792 | 0.283 |
| NCI-H1355 | 0.405 |
| NCI-H3122 | 0.6 |
| NCI-H1437 | 0.454 |
| NCI-H1755 | 0.455 |
| HCC-15 | 0.708 |
| NCI-H1793 | 0.31 |
| PC-14 | 0.596 |
| EKVX | 0.352 |
| LC-2-ad | 0.431 |
| NCI-H1944 | 0.34 |
| NCI-H1975 | 0.317 |
| RERF-LC-KJ | 0.569 |
| ABC-1 | 0.616 |
| NCI-H358 | 0.332 |
| NCI-H650 | 0.977 |

same assay, conditions: first compound 1.265 µM

| Cell Line | relative viability |
| --- | --- |
| NCI-H1915 | 0.811 |
| HCC-827 | 0.575 |
| LXF-289 | 0.701 |
| NCI-H23 | 0.439 |
| NCI-H647 | 0.392 |
| NCI-H1651 | 0.456 |
| EPLC-272H | 0.27 |
| NCI-H1792 | 0.242 |
| NCI-H1355 | 0.445 |
| NCI-H1437 | 0.492 |
| NCI-H1755 | 0.307 |
| HCC-15 | 0.567 |
| NCI-H1793 | 0.163 |
| PC-14 | 0.634 |
| EKVX | 0.441 |
| NCI-H1975 | 0.338 |
| RERF-LC-KJ | 0.475 |
| ABC-1 | 0.367 |
| NCI-H358 | 0.281 |
| NCI-H650 | 0.793 |
| PC-3 [JPC-3] | 0.705 |

same assay, conditions: first compound 4 µM

| Cell Line | relative viability |
| --- | --- |
| NCI-H1915 | 0.985 |
| HCC-827 | 0.824 |
| LXF-289 | 0.707 |
| NCI-H23 | 0.543 |
| NCI-H647 | 0.445 |
| NCI-H1651 | 0.23 |
| EPLC-272H | 0.33 |
| NCI-H1792 | 0.145 |
| NCI-H1355 | 0.435 |
| NCI-H3122 | 0.55 |
| NCI-H1437 | 0.342 |
| NCI-H1755 | 0.296 |
| HCC-15 | 0.638 |
| NCI-H1793 | 0.199 |
| PC-14 | 0.367 |
| EKVX | 0.425 |
| LC-2-ad | 0.417 |
| NCI-H1944 | 0.338 |
| NCI-H1975 | 0.31 |
| RERF-LC-KJ | 0.388 |
| ABC-1 | 0.294 |
| NCI-H358 | 0.317 |
| NCI-H650 | 0.746 |
| PC-3 [JPC-3] | 0.735 |
